Test results reported in US10023592B2, “Bromodomain inhibitors” (Celgene Quanticel Research, Inc., priority 2013, dated 2018).

Tests used:
[1] = test system: NCI-H460, human non-small cell lung cancer cells; assay: Cell-MTS proliferation assay, NCI-H460; format: cell-based; settings: Homo sapiens; Cell-MTS proliferation, NCI-H460 cells, 168 hr
Outline: (§1)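 Seeded for ~90% confluence at 7 days (Raji 15,000, HL-60 5,000, NCI-H460 3,000 cells/well); compound added 24 h post-plating as 11-point dilution, 100 μM to 2.0 nM final.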

[2] = test system: Raji, human Burkitts lymphoma cells; assay: Cell-MTS proliferation assay, Raji; format: cell-based; settings: Homo sapiens; Cell-MTS proliferation, Raji cells, 168 hr
Outline: as §1

[3] = test system: HL-60, human proleukemia cells; assay: Cell-MTS proliferation assay, HL-60; format: cell-based; settings: Homo sapiens; Cell-MTS proliferation, HL-60 cells, 168 hr
Outline: as §1

[4] = biological target: BRD4(BD1) (Homo sapiens (Human), UniProt O60885); assay: In vitro enzyme inhibition assay (BRD4 AlphaScreen); format: binding; settings: in vitro enzyme inhibition assay
Outline: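 His-tagged BRD4 tested by AlphaScreen for binding of biotinylated H4K5/8/12/16-tetraacetyl peptide. After 20 min at room temperature, streptavidin donor and nickel chelate acceptor beads added (5 μg/mL final each). IC50 determined.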

IC50 [1] [nM]	IC50 [2] [nM]	IC50 [3] [nM]	IC50 [4] [nM]	Structure (SMILES)
> 5000	< 500	< 500	< 500	CCS(=O)(=O)Nc1ccc(Oc2ccc(F)cc2F)c(-c2cn(C)c(=O)c3ccoc23)c1 [Example 379, N-[4-(2,4-difluorophenoxy)-3-(5-methyl-4-oxofuro[3,2-c]pyridin-7-yl)phenyl] ethanesulfonamide]
> 5000	< 500	< 500	< 500	Cn1cc(-c2cc(NS(C)(=O)=O)ccc2Oc2ccc(F)cc2F)c2occc2c1=O [Example 380, N-[4-(2,4-difluorophenoxy)-3-(5-methyl-4-oxofuro[3,2-c]pyridin-7-yl)phenyl] methanesulfonamide]
> 5000	500 to 5000	< 500	< 500	Cn1cc(-c2cn(CS(C)(=O)=O)c(=O)cc2OCC2CC2)c2ccc(F)cc2c1=O [Example 383, 4-[4-(cyclopropylmethoxy)-1-(methylsulfonylmethyl)-6-oxopyridin-3-yl]-7-fluoro-2-methylisoquinolin-1-one]
> 5000	< 500	< 500	< 500	Cc1cc(-c2cn(CS(C)(=O)=O)c(=O)cc2Oc2ccc(F)cc2F)cn(C)c1=O [Example 385, 5-[4-(2,4-difluorophenoxy)-1-(methylsulfonylmethyl)-6-oxopyridin-3-yl]-1,3-dimethylpyridin-2-one]
> 5000	500 to 5000	500 to 5000	< 500	Cn1cc(-c2cn(CS(C)(=O)=O)c(=O)cc2Oc2ccc(F)cc2F)ccc1=O [Example 386, 4-(2,4-difluorophenoxy)-5-(1-methyl-6-oxopyridin-3-yl)-1-(methylsulfonylmethyl)pyridin-2-one]
> 5000	< 500	< 500	< 500	Cn1cc(-c2cn(CS(C)(=O)=O)c(=O)cc2Oc2ccc(F)cc2F)c2ccccc2c1=O [Example 387, 4-[4-(2,4-difluorophenoxy)-1-(methylsulfonylmethyl)-6-oxopyridin-3-yl]-2-methylisoquinolin-1-one]
> 5000	< 500	< 500	< 500	CC#CCOc1ccc(S(C)(=O)=O)cc1-c1cc(C)c(=O)n(C)c1 [Example 388, 5-(2-but-2-ynoxy-5-methylsulfonylphenyl)-1,3-dimethylpyridin-2-one]
> 5000	500 to 5000	< 500	< 500	CC#CCOc1ccc(S(=O)(=O)CC)cc1-c1cc(OC)c(=O)n(C)c1 [Example 389, 5-(2-but-2-ynoxy-5-ethylsulfonylphenyl)-3-methoxy-1-methylpyridin-2-one]
> 5000	500 to 5000	< 500	< 500	CCS(=O)(=O)c1ccc(OCC#CC2CC2)c(-c2cc(OC)c(=O)n(C)c2)c1 [Example 391, 5-[2-(3-cyclopropylprop-2-ynoxy)-5-ethylsulfonylphenyl]-3-methoxy-1-methylpyridin-2-one]
> 5000	< 500	< 500	< 500	CCS(=O)(=O)c1ccc(Nc2ccc(F)cc2F)c(-c2cc(C)c(=O)n(C)c2)c1 [Example 396, 5-[2-(2,4-difluoroanilino)-5-ethylsulfonylphenyl]-1,3-dimethylpyridin-2-one]
> 5000	500 to 5000	< 500	< 500	Cc1cc(-c2cc(S(C)(=O)=O)ccc2Nc2ccc(F)cc2F)cn(C)c1=O [Example 398, 5-[2-(2,4-difluoroanilino)-5-methylsulfonylphenyl]-1,3-dimethylpyridin-2-one]
> 5000	< 500	< 500	< 500	CCS(=O)(=O)c1ccc(OCC2CC2)c(-c2cc(OC)c(=O)n(C)c2)c1 [Example 399, 5-[2-(cyclopropylmethoxy)-5-ethylsulfonylphenyl]-3-methoxy-1-methylpyridin-2-one]
> 5000	< 500	< 500	< 500	COc1cc(-c2cc(CS(C)(=O)=O)ccc2Oc2ccc(F)cc2F)cn(C)c1=O [Example 400, 5-[2-(2,4-difluorophenoxy)-5-(methylsulfonylmethyl)phenyl]-3-methoxy-1-methylpyridin-2-one]
> 5000	< 500	< 500	< 500	CCS(=O)(=O)Nc1ccc(Oc2ccc(F)cc2F)c(-c2cc(SC)c(=O)n(C)c2)c1 [Example 402, N-[4-(2,4-difluorophenoxy)-3-(1-methyl-5-methylsulfanyl-6-oxopyridin-3-yl)phenyl]ethanesulfonamide]
> 5000	< 500	< 500	< 500	Cc1cc(-c2cc(S(C)(=O)=O)ccc2OC2CCC(F)(F)CC2)cn(C)c1=O [Example 415, 5-[2-(4,4-difluorocyclohexyl)oxy-5-methylsulfonylphenyl]-1,3-dimethylpyridin-2-one]
> 5000	500 to 5000	< 500	< 500	Cn1cc(-c2cc(CS(C)(=O)=O)ccc2OCC(F)(F)F)cc(Cl)c1=O [Example 418, 3-chloro-1-methyl-5-[5-(methylsulfonylmethyl)-2-(2,2,2-trifluoroethoxy)phenyl]pyridin-2-one]
> 5000	500 to 5000	500 to 5000	< 500	Cc1cc(-c2cc(S(C)(=O)=O)ccc2OC2CCOC2)cn(C)c1=O (centres unmarked) [Example 426, 1,3-dimethyl-5-[5-methylsulfonyl-2-(oxolan-3-yloxy)phenyl]pyridin-2-one]

Second part, the molecule before the results:

Structure (SMILES)	IC50 [1] [nM]	IC50 [2] [nM]	IC50 [3] [nM]	IC50 [4] [nM]
Cn1cc(-c2cc(S(C)(=O)=O)ccc2OCC2CC2)c2occc2c1=O [Example 377, 7-[2-(cyclopropylmethoxy)-5-methylsulfonylphenyl]-5-methylfuro[3,2-c]pyridin-4-one]	> 5000	< 500	< 500	< 500
CCS(=O)(=O)c1ccc(OCC2CC2)c(-c2cn(C)c(=O)c3ccoc23)c1 [Example 378, 7-[2-(cyclopropylmethoxy)-5-ethylsulfonylphenyl]-5-methylfuro[3,2-c] pyridin-4-one]	500 to 5000	< 500	< 500	< 500
Cn1cc(-c2cn(CS(C)(=O)=O)c(=O)cc2OCC2CC2)ccc1=O [Example 381, 4-(cyclopropylmethoxy)-5-(1-methyl-6-oxopyridin-3-yl)-1-(methylsulfonylmethyl)pyridin-2-one]	> 5000	> 5000	500 to 5000	< 500
Cc1cc(-c2cn(CS(C)(=O)=O)c(=O)cc2OCC2CC2)cn(C)c1=O [Example 382, 5-[4-(cyclopropylmethoxy)-1-(methylsulfonylmethyl)-6-oxopyridin-3-yl]-1,3-dimethylpyridin-2-one]	> 5000	500 to 5000	< 500	< 500
Cn1cc(-c2cn(CS(C)(=O)=O)c(=O)cc2OCC2CC2)c2ccccc2c1=O [Example 384, 4-[4-(cyclopropylmethoxy)-1-(methylsulfonylmethyl)-6-oxopyridin-3-yl]-2-methylisoquinolin-1-one]	> 5000	500 to 5000	< 500	< 500
CCS(=O)(=O)c1ccc(NC2CCC(F)(F)CC2)c(-c2cc(C)c(=O)n(C)c2)c1 [Example 397, 5-[2-[(4,4-difluorocyclohexyl)amino]-5-ethylsulfonylphenyl]-1,3-dimethylpyridin-2-one]	> 5000	< 500	< 500	< 500
Cc1cc(-c2cc(S(C)(=O)=O)ccc2O[C@H]2CC[C@H](O)CC2)cn(C)c1=O [Example 401, 5-[2-(4-hydroxycyclohexyl)oxy-5-methylsulfonylphenyl]-1,3-dimethylpyridin-2-one]	> 5000	500 to 5000	< 500	< 500
Cc1cc(-c2cc(S(C)(=O)=O)ccc2O[C@H]2CC[C@H](N)CC2)cn(C)c1=O [Example 404, 5-[2-(trans-4-aminocyclohexyl)oxy-5-methylsulfonylphenyl]-1,3-dimethylpyridin-2-one]	> 5000	> 5000	< 500	< 500
CCS(=O)(=O)c1ccc(NC2CCCC2)c(-c2cc(C)c(=O)n(C)c2)c1 [Example 416, 5-[2-(cyclopentylamino)-5-ethylsulfonylphenyl]-1,3-dimethylpyridin-2-one]	> 5000	< 500	< 500	< 500
Cc1cc(-c2cc(S(C)(=O)=O)ccc2NC2CCCC2)cn(C)c1=O [Example 417, 5-[2-(cyclopentylamino)-5-methylsulfonylphenyl]-1,3-dimethylpyridin-2-one]	> 5000	< 500	< 500	< 500
Cc1cc(-c2cc(S(C)(=O)=O)ccc2OC2CCCC2)cn(C)c1=O [Example 419, 5-(2-cyclopentyloxy-5-methylsulfonylphenyl)-1,3-dimethylpyridin-2-one]	> 5000	500 to 5000	< 500	< 500
Cc1cc(-c2cc(S(C)(=O)=O)ccc2OC2CCOCC2)cn(C)c1=O [Example 420, 1,3-dimethyl-5-[5-methylsulfonyl-2-(oxan-4-yloxy)phenyl]pyridin-2-one]	> 5000	500 to 5000	< 500	< 500
